Active and inactive are the calls of the source. The rule behind the calls is not given here.
Columns and labels:
L6 = assay: Cytotoxicity against rat L6 cells after 72 hrs by alamar blue assay; type: cell-based; settings: L6, 72 h
[1] = system: Trypanosoma brucei rhodesiense; assay: Antitrypanosomal activity against Trypanosoma brucei rhodesiense after 72 hrs by alamar blue assay; type: functional, organism-based
Plasmodium falciparum = assay: Antimalarial activity against chloroquine and pyrimethamine-resistant Plasmodium falciparum K1 after 48 hrs as [3H]hypoxanthine uptake; type: functional, organism-based
[2] = Selectivity index, ratio of IC50 for rat L6 cells to IC50 for Plasmodium falciparum K1; type: toxicity, cell-based; settings: L6 cells (versus Plasmodium falciparum K1), read-out: Ratio IC50
[3] = Selectivity index, ratio of IC50 for rat L6 cells to IC50 for Trypanosoma brucei rhodesiense; type: toxicity, cell-based; settings: L6 cells (versus Trypanosoma brucei rhodesiense), read-out: Ratio IC50
Plasmodium berghei [4] = assay: Antiplasmodial activity as increased MST against Plasmodium berghei ANKA infected Fu albino mice (Mus musculus) at 0.01 mL/kg intraperitoneal dose after 24 hrs; type: functional, organism-based
Plasmodium berghei [5] = assay: Antiplasmodial activity against Plasmodium berghei ANKA infected Fu albino mice (Mus musculus) at 0.01 mL/kg intraperitoneal dose at 24 hrs as parasitaemia per 1000 erythrocytes; type: functional

SMILES | IC50 (L6) [µM] | IC50 [1] [nM] | IC50 (Plasmodium falciparum) [nM] | selectivity ratio [2] | selectivity ratio [3] | Activity (Plasmodium berghei [4]) | Activity (Plasmodium berghei [5]) [%]
CN(C)C12CCNC(C(c3ccccc3)C1)C(c1ccccc1)C2 (centres undefined) | 109 | 600 | 280 | 389 | 181 | – | –
CN(C)C12CC(OC(=O)CN3CCCC3)C(C(c3ccccc3)C1)C(c1ccccc1)C2 (centres undefined) | 32.7 | 210 | 710 | 46 | 156 | – | –
CCN(CC)CC(=O)OC1CC2(N(C)C)CC(c3ccccc3)C1C(c1ccccc1)C2 (centres undefined) | 30.1 | 610 | 2720 | 11.1 | 49.4 | – | –
O=C(CN1CCCC1)OC1CC2(N3CCCCC3)CC(c3ccccc3)C1C(c1ccccc1)C2 (centres undefined) | 16.4 | 320 | 470 | 34.9 | 51.2 | – | –
CN(C)C12CC(OC(=O)CN3CCCCC3)C(C(c3ccccc3)C1)C(c1ccccc1)C2 (centres undefined) | 29.3 | 1990 | 520 | 56.3 | 14.7 | – | –
O=C(CN1CCCCC1)OC1CC2(N3CCCC3)CC(c3ccccc3)C1C(c1ccccc1)C2 (centres undefined) | 14.2 | 370 | 370 | 38.4 | 38.4 | – | –
c1ccc(C2CC3(N4CCCC4)CCNC2C(c2ccccc2)C3)cc1 (centres undefined) | 120 | 1160 | 560 | 215 | 104 | – | –
CCN(CC)CC(=O)OC1CC2(N3CCCC3)CC(c3ccccc3)C1C(c1ccccc1)C2 (centres undefined) | 49 | 720 | 200 | 245 | 68.1 | – | –
CCN(CC)CC(=O)OC1CC2(N3CCCCC3)CC(c3ccccc3)C1C(c1ccccc1)C2 (centres undefined) | 23.9 | 560 | 250 | 95.7 | 42.7 | – | –
O=C(CN1CCCCC1)OC1CC2(N3CCCCC3)CC(c3ccccc3)C1C(c1ccccc1)C2 (centres undefined) | 60.4 | 870 | 180 | 336 | 69.4 | – | –
c1ccc(C2CC3(N4CCCCC4)CCNC2C(c2ccccc2)C3)cc1 (centres undefined) | 89.7 | 6570 | 640 | 140 | 13.7 | – | –
NC1CC2(N3CCCC3)CC(c3ccccc3)C1C(c1ccccc1)C2 (centres undefined) | 38.1 | 410 | 650 | 58.6 | 92.9 | – | –
CN(C)C12CC(N)C(C(c3ccccc3)C1)C(c1ccccc1)C2 (centres undefined) | 40.9 | 350 | 610 | 67 | 117 | – | –
NCC(=O)OC1CC2(N3CCCC3)CC(c3ccccc3)C1C(c1ccccc1)C2 (centres undefined) | 42.9 | 230 | 700 | 61.3 | 187 | – | –
NC1CC2(N3CCCCC3)CC(c3ccccc3)C1C(c1ccccc1)C2 (centres undefined) | 35 | 270 | 550 | 63.5 | 129 | – | –
CN1CCN(CC(=O)NC2CC3(N(C)C)CC(c4ccccc4)C2C(c2ccccc2)C3)CC1 (racemic) | 66.2 | 1600 | 2580 | 25.7 | 41.4 | – | –
CN1CCN(CC(=O)NC2CC3(N4CCCC4)CC(c4ccccc4)C2C(c2ccccc2)C3)CC1 (racemic) | 50.2 | 1130 | 820 | 61.3 | 44.5 | – | –

SMILES | IC50 (L6) [µM] | IC50 [1] [nM] | IC50 (Plasmodium falciparum) [nM] | selectivity ratio [2] | selectivity ratio [3] | Activity (Plasmodium berghei [4]) | Activity (Plasmodium berghei [5]) [%]
CN1CCN(CC(=O)OC2CC3(N4CCCC4)CC(c4ccccc4)C2C(c2ccccc2)C3)CC1 (racemic) | 24.6 | 140 | 540 | 45.5 | 176 | – | –
CN1CCN(CC(=O)OC2CC3(N4CCCCC4)CC(c4ccccc4)C2C(c2ccccc2)C3)CC1 (racemic) | 29.5 | 870 | 106 | 278 | 33.9 | inactive | 15
CN1CCN(CCC(=O)N2CCC3(N4CCCC4)CC(c4ccccc4)C2C(c2ccccc2)C3)CC1 (racemic) | 75.4 | 31900 | 900 | 83.8 | 2.36 | – | –
CN1CCN(CC(=O)N2CCC3(N4CCCC4)CC(c4ccccc4)C2C(c2ccccc2)C3)CC1 (racemic) | 69.1 | 41100 | 830 | 83.2 | 1.68 | – | –
CN1CCN(CC(=O)N2CCC3(N4CCCCC4)CC(c4ccccc4)C2C(c2ccccc2)C3)CC1 (racemic) | 177 | 92000 | 620 | 286 | 1.93 | – | –
CN1CCN(CC(=O)N2CCC3(N(C)C)CC(c4ccccc4)C2C(c2ccccc2)C3)CC1 (racemic) | 195 | 45800 | 2370 | 82.4 | 4.27 | – | –
CN1CCN(CCC(=O)N2CCC3(N4CCCCC4)CC(c4ccccc4)C2C(c2ccccc2)C3)CC1 (racemic) | 120 | 30800 | 600 | 200 | 3.89 | – | –
CN1CCN(CCC(=O)NC2CC3(N4CCCCC4)CC(c4ccccc4)C2C(c2ccccc2)C3)CC1 (racemic) | 61.1 | 860 | 280 | 218 | 71 | – | –
CN1CCN(CC(=O)OC2CC3(N(C)C)CC(c4ccccc4)C2C(c2ccccc2)C3)CC1 (racemic) | 39.9 | 130 | 350 | 114 | 307 | – | –
CN1CCN(CC(=O)NC2CC3(N4CCCCC4)CC(c4ccccc4)C2C(c2ccccc2)C3)CC1 (racemic) | 57.5 | 690 | 380 | 151 | 83.4 | – | –
CN1CCN(CCC(=O)NC2CC3(N4CCCC4)CC(c4ccccc4)C2C(c2ccccc2)C3)CC1 (racemic) | 86.7 | 4150 | 2080 | 41.7 | 20.9 | – | –
CN1CCN(CCC(=O)NC2CC3(N(C)C)CC(c4ccccc4)C2C(c2ccccc2)C3)CC1 (racemic) | 95 | 2740 | 4190 | 22.7 | 34.7 | – | –
CN1CCN(CCC(=O)N2CCC3(N(C)C)CC(c4ccccc4)C2C(c2ccccc2)C3)CC1 (racemic) | 128 | 28200 | 1740 | 73.5 | 4.52 | – | –
C[C@@H]1CC[C@H]2[C@@H](C)C(=O)O[C@@H]3O[C@@]4(C)CC[C@@H]1[C@]32OO4 [ARTEMISININ] | 450 | – | 6.4 | 70400 | – | – | –
CCN(CC)CCCC(C)Nc1ccnc2cc(Cl)ccc12 (centres undefined) [CHLOROQUINE] | 188 | – | – | – | – | – | –
Nc1nc(N)nc(Nc2ccc([As]3SCC(CO)S3)cc2)n1 (centres undefined) [MELARSOPROL] | 7.78 | 3.9 | – | – | 2000 | – | –
